# Reference: ChEMBL document CHEMBL3885861, “Open TG-GATES”
# Species on record: Rattus norvegicus
# Assay: Open TG-GATES - Regimen: Daily Repeat
# Format: toxicity, organism-based, Sprague-Dawley
# Design: regimen Daily Repeat, gender Male, age 6 weeks
# Conditions: in vivo, po, route gavage; for Bas / Eos / Fbg / Hb / Ht / Lym / MCHC / Mono / Neu / Plat / RBC / Ret / WBC / PT / MCV: tissue Blood; for KIDNEY_L / KIDNEY_R / KIDNEY_TOTAL: tissue Kidney; for LIVER: tissue Liver; for ALP / ALT / AST / CRE / DBIL / IP / K / LDH / Na / PL / RALB / TBIL / TC / TG / TP / gamma-GTP / BUN / Ca: tissue Plasma
# [1] = 0 mg/kg, 72 h, dose level Control, time 3 day
# [2] = 0 mg/kg, […], dose level Control, time 7 day
# [3] = 0 mg/kg, […], dose level Control, time 14 day
# [4] = 0 mg/kg, […], dose level Control, time 28 day
# [5] = 40 mg/kg, 72 h, dose level Low, time 3 day
# [6] = 40 mg/kg, […], dose level Low, time 7 day
# [7] = 40 mg/kg, […], dose level Low, time 14 day
# [8] = 40 mg/kg, […], dose level Low, time 28 day
# [9] = 120 mg/kg, 72 h, dose level Middle, time 3 day
structure (smiles),measurement,setting,value
CCC(C)(C)C(=O)O[C@H]1C[C@@H](C)C=C2C=C[C@H](C)[C@H](CC[C@@H]3C[C@@H](O)CC(=O)O3)[C@H]21 [SIMVASTATIN],TERMINAL_BW,[1],222.3 g
same,Bas,[1],0%
same,Eos,[1],1%
same,Fbg,[1],227 mg/dL
same,Hb,[1],13.3 g/dL
same,Ht,[1],40%
same,Lym,[1],78.8%
same,MCHC,[1],33.1%
same,Mono,[1],8.8%
same,Neu,[1],11.8%
same,Plat,[1],121.1 x10_4/uL
same,RBC,[1],621.6 x10_4/ul
same,Ret,[1],6.5%
same,WBC,[1],98.2 x10_2/uL
same,KIDNEY_L,[1],1 g
same,KIDNEY_R,[1],1 g
same,KIDNEY_TOTAL,[1],2 g
same,LIVER,[1],11 g
same,ALP,[1],820.2 IU/L
same,ALT,[1],36.6 IU/L
same,AST,[1],58.8 IU/L
same,CRE,[1],0.6 mg/dL
same,DBIL,[1],0.004 mg/dL
same,IP,[1],7.8 mg/dL
same,K,[1],4.6 meq/L
same,LDH,[1],81 IU/L
same,Na,[1],140.2 meq/L
same,PL,[1],143.4 mg/dL
same,RALB,[1],3.8 g/dL
same,TBIL,[1],0.3 mg/dL
same,TC,[1],82.2 mg/dL
same,TG,[1],75.6 mg/dL
same,TP,[1],5.6 g/dL
same,gamma-GTP,[1],1.8 IU/L
same,TERMINAL_BW,[2],253.4 g
same,TERMINAL_BW,[3],301 g
same,TERMINAL_BW,[4],380.8 g
same,Bas,[2],0%
same,Eos,[2],0.8%
same,Fbg,[2],217.4 mg/dL
same,Hb,[2],12.8 g/dL
same,Ht,[2],38.8%
same,Lym,[2],78.6%
same,MCHC,[2],33%
same,Mono,[2],8.8%
same,Neu,[2],12%
same,PT,[2],10.9 s
same,Plat,[2],115.6 x10_4/uL
same,RBC,[2],606.2 x10_4/ul
same,Ret,[2],3.8%
same,WBC,[2],108.7 x10_2/uL
same,Bas,[3],0%
same,Eos,[3],1%
same,Fbg,[3],222.4 mg/dL
same,Hb,[3],13.9 g/dL
same,Ht,[3],41.7%
same,Lym,[3],78.4%
same,MCHC,[3],33.2%
same,Mono,[3],7%
same,Neu,[3],13.8%
same,Plat,[3],123.4 x10_4/uL
same,RBC,[3],674.8 x10_4/ul
same,Ret,[3],6.2%
same,WBC,[3],122.2 x10_2/uL
same,Bas,[4],0%
same,Eos,[4],1%
same,Fbg,[4],227.8 mg/dL
same,Hb,[4],14.5 g/dL
same,Ht,[4],43.6%
same,Lym,[4],85.6%
same,MCHC,[4],33.3%
same,MCV,[4],57.8 fL
same,Mono,[4],4.8%
same,Neu,[4],8.6%
same,PT,[4],11.7 s
same,Plat,[4],120.4 x10_4/uL
same,RBC,[4],753.6 x10_4/ul
same,Ret,[4],3%
same,WBC,[4],132.7 x10_2/uL
same,KIDNEY_L,[2],1.1 g
same,KIDNEY_R,[2],1.1 g
same,KIDNEY_TOTAL,[2],2.2 g
same,KIDNEY_L,[3],1.2 g
same,KIDNEY_R,[3],1.3 g
same,KIDNEY_TOTAL,[3],2.5 g
same,KIDNEY_L,[4],1.4 g
same,KIDNEY_R,[4],1.4 g
same,KIDNEY_TOTAL,[4],2.8 g
same,LIVER,[2],12.2 g
same,LIVER,[3],14 g
same,LIVER,[4],15.9 g
same,ALP,[2],953 IU/L
same,ALT,[2],34.4 IU/L
same,AST,[2],63.4 IU/L
same,CRE,[2],0.7 mg/dL
same,DBIL,[2],0.012 mg/dL
same,IP,[2],7.1 mg/dL
same,K,[2],4.7 meq/L
same,LDH,[2],81.6 IU/L
same,Na,[2],142.4 meq/L
same,PL,[2],152.4 mg/dL
same,RALB,[2],3.8 g/dL
same,TBIL,[2],0.3 mg/dL
same,TC,[2],78.6 mg/dL
same,TP,[2],5.7 g/dL
same,gamma-GTP,[2],1.2 IU/L
same,ALP,[3],777.2 IU/L
same,ALT,[3],34.6 IU/L
same,AST,[3],64.2 IU/L
same,BUN,[3],20.6 mg/dL
same,CRE,[3],0.6 mg/dL
same,DBIL,[3],0.016 mg/dL
same,IP,[3],7 mg/dL
same,K,[3],4.5 meq/L
same,LDH,[3],74.6 IU/L
same,Na,[3],140.6 meq/L
same,PL,[3],154.4 mg/dL
same,RALB,[3],3.8 g/dL
same,TBIL,[3],0.3 mg/dL
same,TC,[3],73.6 mg/dL
same,TG,[3],115.8 mg/dL
same,TP,[3],5.9 g/dL
same,gamma-GTP,[3],1.4 IU/L
same,ALP,[4],672 IU/L
same,ALT,[4],31.8 IU/L
same,AST,[4],57.6 IU/L
same,BUN,[4],20 mg/dL
same,CRE,[4],0.7 mg/dL
same,DBIL,[4],0.016 mg/dL
same,IP,[4],5.9 mg/dL
same,K,[4],4.3 meq/L
same,LDH,[4],76.6 IU/L
same,Na,[4],142.6 meq/L
same,PL,[4],147.8 mg/dL
same,RALB,[4],3.9 g/dL
same,TBIL,[4],0.3 mg/dL
same,TC,[4],66 mg/dL
same,TG,[4],151.4 mg/dL
same,TP,[4],6.1 g/dL
same,gamma-GTP,[4],1.6 IU/L
same,TERMINAL_BW,[5],221.3 g
same,Bas,[5],0%
same,Eos,[5],1%
same,Fbg,[5],222.8 mg/dL
same,Hb,[5],13.6 g/dL
same,Ht,[5],41.1%
same,Lym,[5],77%
same,MCHC,[5],33.2%
same,Mono,[5],8.6%
same,Neu,[5],13.6%
same,Plat,[5],125.7 x10_4/uL
same,RBC,[5],639.6 x10_4/ul
same,Ret,[5],5.1%
same,WBC,[5],97.1 x10_2/uL
same,KIDNEY_L,[5],0.9 g
same,KIDNEY_R,[5],1 g
same,KIDNEY_TOTAL,[5],1.9 g
same,ALP,[5],959.2 IU/L
same,ALT,[5],40.6 IU/L
same,AST,[5],67 IU/L
same,BUN,[5],18 mg/dL
same,CRE,[5],0.5 mg/dL
same,DBIL,[5],0.004 mg/dL
same,IP,[5],7.1 mg/dL
same,K,[5],4.4 meq/L
same,LDH,[5],102.4 IU/L
same,Na,[5],140 meq/L
same,PL,[5],148.4 mg/dL
same,RALB,[5],3.8 g/dL
same,TBIL,[5],0.3 mg/dL
same,TC,[5],88.2 mg/dL
same,TG,[5],69.6 mg/dL
same,TP,[5],5.6 g/dL
same,gamma-GTP,[5],1.8 IU/L
same,TERMINAL_BW,[6],254.5 g
same,TERMINAL_BW,[7],301.6 g
same,TERMINAL_BW,[8],380.4 g
same,Bas,[6],0%
same,Eos,[6],0.6%
same,Fbg,[6],232.4 mg/dL
same,Hb,[6],13.3 g/dL
same,Ht,[6],39.9%
same,Lym,[6],83%
same,MCHC,[6],33.2%
same,Mono,[6],6%
same,PT,[6],11 s
same,Plat,[6],120.4 x10_4/uL
same,RBC,[6],619.6 x10_4/ul
same,Ret,[6],4.2%
same,WBC,[6],123 x10_2/uL
same,Bas,[7],0%
same,Eos,[7],0.6%
same,Fbg,[7],219.4 mg/dL
same,Hb,[7],13.9 g/dL
same,Ht,[7],41.7%
same,Lym,[7],81.6%
same,MCHC,[7],33.3%
same,Mono,[7],5.6%
same,Neu,[7],12.4%
same,Plat,[7],119.7 x10_4/uL
same,RBC,[7],675.8 x10_4/ul
same,Ret,[7],5.3%
same,WBC,[7],121.7 x10_2/uL
same,Bas,[8],0%
same,Eos,[8],1.2%
same,Fbg,[8],244.4 mg/dL
same,Hb,[8],14.8 g/dL
same,Ht,[8],44.7%
same,Lym,[8],81%
same,MCHC,[8],33%
same,MCV,[8],58.3 fL
same,Mono,[8],6.4%
same,Neu,[8],11.6%
same,Plat,[8],111 x10_4/uL
same,RBC,[8],766.6 x10_4/ul
same,Ret,[8],2.3%
same,WBC,[8],112.3 x10_2/uL
same,KIDNEY_L,[6],1.1 g
same,KIDNEY_R,[6],1.1 g
same,KIDNEY_TOTAL,[6],2.2 g
same,KIDNEY_L,[7],1.2 g
same,KIDNEY_R,[7],1.2 g
same,KIDNEY_TOTAL,[7],2.4 g
same,KIDNEY_L,[8],1.4 g
same,KIDNEY_R,[8],1.4 g
same,KIDNEY_TOTAL,[8],2.8 g
same,LIVER,[6],12.5 g
same,LIVER,[7],13.6 g
same,LIVER,[8],16.5 g
same,ALP,[6],877.6 IU/L
same,ALT,[6],38.4 IU/L
same,AST,[6],60.8 IU/L
same,BUN,[6],20.6 mg/dL
same,CRE,[6],0.6 mg/dL
same,Ca,[6],11 mg/dL
same,DBIL,[6],0 mg/dL
same,IP,[6],6.9 mg/dL
same,K,[6],4.9 meq/L
same,LDH,[6],112.2 IU/L
same,Na,[6],141.4 meq/L
same,PL,[6],155 mg/dL
same,RALB,[6],3.8 g/dL
same,TBIL,[6],0.3 mg/dL
same,TG,[6],99.2 mg/dL
same,TP,[6],5.9 g/dL
same,gamma-GTP,[6],1.8 IU/L
same,ALP,[7],819.8 IU/L
same,ALT,[7],37 IU/L
same,AST,[7],61.4 IU/L
same,BUN,[7],20 mg/dL
same,CRE,[7],0.6 mg/dL
same,Ca,[7],10.8 mg/dL
same,DBIL,[7],0.006 mg/dL
same,IP,[7],7.1 mg/dL
same,K,[7],4.7 meq/L
same,LDH,[7],82 IU/L
same,Na,[7],140.8 meq/L
same,PL,[7],145.6 mg/dL
same,RALB,[7],3.9 g/dL
same,TBIL,[7],0.3 mg/dL
same,TC,[7],76.6 mg/dL
same,TG,[7],118.4 mg/dL
same,TP,[7],5.9 g/dL
same,gamma-GTP,[7],1.8 IU/L
same,ALP,[8],751.6 IU/L
same,ALT,[8],34.2 IU/L
same,AST,[8],60.4 IU/L
same,BUN,[8],20.6 mg/dL
same,CRE,[8],0.7 mg/dL
same,DBIL,[8],0.024 mg/dL
same,IP,[8],6.8 mg/dL
same,K,[8],4.3 meq/L
same,LDH,[8],113.6 IU/L
same,Na,[8],143.2 meq/L
same,PL,[8],163 mg/dL
same,RALB,[8],4 g/dL
same,TBIL,[8],0.3 mg/dL
same,TC,[8],78.2 mg/dL
same,TG,[8],165.2 mg/dL
same,TP,[8],6.2 g/dL
same,gamma-GTP,[8],1.4 IU/L
same,TERMINAL_BW,[9],215.2 g
same,Bas,[9],0%
same,Eos,[9],1%
same,Fbg,[9],217.2 mg/dL
same,Hb,[9],13.6 g/dL
